Test results: patent US20260048051A1, “TREATMENT OF INFLAMMATORY BOWEL DISEASE” (Atomwise Inc., priority 2024, published 2026)
Like-named read-outs stand apart in the source and are kept apart here.

Key:
TYK2-JH2 = molecular target: T1, TYK2-JH2 (Homo sapiens, UniProt P29597); test: TYK2-JH2 HTRF binding assay (ligand efficiency); conditions: calculated from binding-assay IC50 (Equation 1)
T1 construct: TYK JH2 enzyme mix (ChemPartner: CP20210818A-BV); purchased ChemPartner CP20210818A-BV
How it was run: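 HTRF competition binding: 0.5 nM His-tagged TYK2 JH2 preincubated 10 min at room temperature with compound (final 0.1 to 0.000005 μM), then 35 nM tracer and anti-6HIS Tb cryptate added for 60 min. Buffer 20 mM HEPES pH 7.5, 10 mM MgCl2, 0.01% Triton X-100, 1 mM DTT; TR-FRET Ex340/Em495/520. Ligand efficiency derived from binding IC50.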

[1] = Mouse plasma pharmacokinetics, PO 5 mg/kg; type: in vivo
Method: The following example describes the methods used to evaluate the pharmacokinetics of TYK2 inhibitors in vivo following dosing of a compound of the invention.
The pharmacokinetics of test compounds were evaluated in either male CD-1 mice or male C57BL/6 mice when administered by oral gavage and IV bolus injection. The animals were allowed free access to food and water before administration. The plasma samples were analyzed by LC-MS/MS and the concentration of test compound at each time point was determined by linear regression. Pharmacokinetic parameters were calculated from the plasma concentrations by non-compartmental modeling using WinNonlin 8.2.
Oral composition. To prepare a pharmaceutical composition for oral delivery, the test articles described herein were dissolved in DMSO and then mixed with necessary volume of PEG400 followed by […] in water or 50% Kolliphor HS 15 in saline to provide the final concentrations of 0.5 mg/mL or 1 mg/mL (Table 8). The resultant mixtures were suitable for oral administration.
The PK parameters measured in mouse plasma after treatment with TYK2 inhibitor compounds via PO (oral administration) at 5 mg/kg are summarized below in Tables 9-11.

IFNα/pSTAT5 = test: Whole blood potency (IFNα/pSTAT5), mouse; type: cell-based; conditions: read-out: Cellular Whole Blood Potency IC50 (IFNα/pSTAT5), Mouse
Excerpt: Exemplary compounds of the invention, compounds 1 and 2 were compared in this assay.

[2] = tested on: anti-CD40-induced inflammatory bowel disease (IBD); test: Anti-CD40-induced mouse model of inflammatory bowel disease (IBD); type: in vivo, RAGN12 mice; conditions: for colon histopathology scores / colon weight-to-length ratio: 7-day anti-CD40 IBD model
Method: This study was conducted in accordance with the Inotiv Boulder test facility standard operating procedures (SOPs), the World Health Organization Quality Practices in Basic Biomedical Research guidelines, and in compliance with all state and federal regulations, including USDA Animal Welfare Act 9 CFR Parts 1-3. Federal Register 39129, Jul. 22, 1993. This study was conducted in accordance with The Guide for the Care & Use of Laboratory Animals (8th Edition) and therefore in accordance with all Inotiv Boulder IACUC approved policies.
Prior to the start of the study, 6-7 week old, RAGN12 mice (Taconics) were acclimated for approximately 4 days. On study day −1, mice were weighed and randomized into treatment groups based on body weight. On study day 0, 200 μg of anti-CD40 monoclonal antibody (BioXcell) was administered intraperitoneally to induce disease. Test articles were dosed orally BID (the exception was the known TYK2 inhibitor at 3 mpk, which was dosed QD, with vehicle administered as the second daily dose). Bodyweight was measured daily on study days 1-6.
On day 7, the study was terminated; mice were anesthetized with Isoflurane and bled to exsanguination followed by cervical dislocation. The entire colon was removed, measured, and weighed. The plasma (for PK) and colon (for histology and cytokine measurements) samples were collected. Histopathology samples were evaluated for edema, inflammation (extent of macrophage, lymphocyte and polymorphonuclear (PMN) cell infiltration), gland loss, erosion, and hyperplasia.
Overall efficacy of test articles is based on a ratio of colon weight to length, and colon histopathology (FIGS. 6A and 6B). Additional readouts of the model support activity of an exemplary compound in IBD (FIG. 6C-6I).

[3] = Log D (octanol / phosphate buffer pH 7.4); type: physicochemical; conditions: for logD at 1 h: octanol/potassium phosphate buffer, pH 7.4, octanol / potassium phosphate buffer pH 7.4
Method: 10 μL of 10 mM stock solutions was placed into a 96-well plate, and 300 μL of octanol was subsequently added. The plate was sealed and agitated on a plate shaker for 5 minutes, followed by centrifugation at 2000 rpm for 5 minutes. The seal was removed and 600 μL of potassium phosphate buffer (pH 7.4) was added. The plate was sealed and the two phases were mixed by shaking vigorously on a plate shaker for 1 hour at 25° C. The plate was then centrifuged for 2000 rpm for 5 minutes and the seal was removed. 10 μL of water was aspirated out of the water phase samples from the water phase plate and mixed with 10 μL of water (1:2 dilution). 180 μL of 50% Ethanol was added into the water phase sample plate (1:10 dilution) to achieve a 1:20 dilution. 50 μL of water phase samples were then mixed with 100 μL of 50% Ethanol (containing IS) into the water phase sample plate to achieve a 1:60 dilution. 10 μL from the octanol phase (the upper phase) was transferred into a new 96-well plate and 190 μL of 50% Ethanol was added (1:20 dilution). 10 μL of the 1:20 diluted octanol samples was transferred into a new 96 deep-well plate and 390 μL of 50% Ethanol (1:40 dilution) was added to achieve a 1:800 dilution. 50 μL of the 1:800 diluted octanol samples were transferred into a new 96-well plate and 100 μL of 50% Ethanol with IS was added to achieve a 1:2400 dilution. The samples were subsequently analyzed with LCMS.

Mouse colon distribution = type: in vivo; conditions: colon / plasma, read-out: Colon/Plasma Ratio at 12 h

T1 sequence (P29597 589-875 limits assumed): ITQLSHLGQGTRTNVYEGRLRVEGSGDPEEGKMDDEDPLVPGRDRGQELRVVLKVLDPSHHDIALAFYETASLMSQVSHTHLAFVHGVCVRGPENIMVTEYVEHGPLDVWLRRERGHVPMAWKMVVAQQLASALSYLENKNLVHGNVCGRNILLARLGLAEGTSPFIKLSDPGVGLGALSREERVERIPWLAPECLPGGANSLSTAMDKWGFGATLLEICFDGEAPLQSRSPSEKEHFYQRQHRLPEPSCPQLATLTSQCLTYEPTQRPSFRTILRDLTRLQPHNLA

C[C@@H](c1ccc(Nc2cc(Nc3ncccc3S(C)(=O)=O)ncn2)nc1)N1CC2(COC2)C1 [Compound 1, (S)—N^4-(5-(1-(2-oxa-6-azaspiro[3.3]heptan-6-yl)ethyl)pyridin-2-yl)-N^6-(3-(methylsulfonyl)pyridin-2-yl)pyrimidine-4,6-diamine]
Ligand Efficiency (TYK2-JH2): ††† (†††: >0.39)
Half-life (t1/2) [1]: †† (††: 1.0-1.5)
Maximum plasma concentration (Cmax) [1]: † (†: <800)
Total systemic exposure (AUCinf) [1]: †† (††: 1000-2000)
IC50 (IFNα/pSTAT5): 0.116 µM
colon histopathology scores [2]: inhibition
colon weight-to-length ratio [2]: inhibition
colon weight:length, efficacious dose ([2]; anti-CD40 IBD model): 200 mpk
LogD ([3]; octanol / potassium phosphate buffer pH 7.4): 1.33
logD at 1 h [3]: ~1.3
Kp at 12 h (Mouse colon distribution; PO 10 mg/kg): 50
Kp at 12 h (Mouse colon distribution; PO 50 mg/kg): 33
Kp at 12 h (Mouse colon distribution; PO 200 mg/kg): 25

C[C@@H](c1ccc(Nc2cc(Nc3ncc(F)cc3S(C)(=O)=O)ncn2)nc1)N1CC2(COC2)C1 [Compound 2, (S)—N^4-(5-(1-(2-oxa-6-azaspiro[3.3]heptan-6-yl)ethyl)pyridin-2-yl)-N^6-(5-fluoro-3-(methylsulfonyl)pyridin-2-yl)pyrimidine-4,6-diamine]
Ligand Efficiency (TYK2-JH2): ††† (†††: >0.39)
Half-life (t1/2) [1]: †† (††: 1.0-1.5)
Maximum plasma concentration (Cmax) [1]: ††† (†††: >1500)
Total systemic exposure (AUCinf) [1]: ††† (†††: >2000)
IC50 (IFNα/pSTAT5): 0.0643 µM
colon histopathology scores [2]: inhibition
colon weight-to-length ratio [2]: inhibition
logD at 1 h [3]: ~1.6
Kp at 12 h (Mouse colon distribution; PO 10 mg/kg): 24
Kp at 12 h (Mouse colon distribution; PO 50 mg/kg): 13
Kp at 12 h (Mouse colon distribution; PO 200 mg/kg): 7.4
